Experimental data reported in patent US9353082B2, “Pharmaceutical compounds” (BIAL—PORTELA & CA, S.A., priority 2008, dated 2016).

What was measured:
FAAH [1] = biological target: T1, FAAH (Mus musculus, UniProt O08914); assay: In vivo FAAH inhibition after oral dosing, remaining activity in brain homogenate (BRh, central nervous tissue); design: species or system NMRI mice; settings: brain homogenate, 3 mg/kg, 8 h
T1 construct: A fragment of liver, left lung lobe and brain without cerebellum were removed; from tissue; host or cells: male NMRI mice; brain (without cerebellum) and liver homogenates
T1 sequence (O08914 1-579): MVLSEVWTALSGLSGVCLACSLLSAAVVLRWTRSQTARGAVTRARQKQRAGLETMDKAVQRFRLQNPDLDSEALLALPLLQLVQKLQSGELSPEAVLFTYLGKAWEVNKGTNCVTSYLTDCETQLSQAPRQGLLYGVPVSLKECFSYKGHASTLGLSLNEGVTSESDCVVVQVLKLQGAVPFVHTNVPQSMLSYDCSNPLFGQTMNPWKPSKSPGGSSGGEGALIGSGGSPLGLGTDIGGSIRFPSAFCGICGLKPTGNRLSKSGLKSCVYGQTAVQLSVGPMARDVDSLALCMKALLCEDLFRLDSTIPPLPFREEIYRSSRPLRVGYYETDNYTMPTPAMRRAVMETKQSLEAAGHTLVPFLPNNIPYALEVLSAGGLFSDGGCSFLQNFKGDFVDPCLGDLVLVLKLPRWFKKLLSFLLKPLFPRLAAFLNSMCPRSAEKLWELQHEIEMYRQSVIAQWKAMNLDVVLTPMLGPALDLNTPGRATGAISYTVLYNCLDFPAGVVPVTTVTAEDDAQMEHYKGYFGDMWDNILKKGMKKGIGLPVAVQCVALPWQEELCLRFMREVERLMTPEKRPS
In short: (§1)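 Male NMRI mice, fasted overnight, got 30 or 3 mg/kg compound orally (0.5% CMC suspension or water) and were compared with vehicle controls. Brain (no cerebellum) and liver homogenates were incubated with 2 μM AEA plus 5 nM 3H-AEA at 37 °C, 10 min for brain and 7 min for liver. Remaining FAAH activity is % of vehicle after blank subtraction.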

FAAH [2] = biological target: T1, FAAH; assay: In vivo FAAH inhibition after oral dosing, remaining activity in liver homogenate (LVh, peripheral tissue); design: species or system NMRI mice; settings: liver homogenate, 3 mg/kg, 8 h
In short: as §1

FAAH [3] = biological target: T2, FAAH (Rattus norvegicus, UniProt P97612); assay: In vitro FAAH activity in rat brain membranes, 3H-AEA substrate, % of control; format: biochemical, Wistar rats; settings: 100 nM test compound, low value = strong inhibitor
T2 construct: Frozen brains (without cerebellum) from Wistar rats were used; from tissue; host or cells: Wistar rat brain (without cerebellum), washed membrane pellets
T2 sequence (P97612 1-579): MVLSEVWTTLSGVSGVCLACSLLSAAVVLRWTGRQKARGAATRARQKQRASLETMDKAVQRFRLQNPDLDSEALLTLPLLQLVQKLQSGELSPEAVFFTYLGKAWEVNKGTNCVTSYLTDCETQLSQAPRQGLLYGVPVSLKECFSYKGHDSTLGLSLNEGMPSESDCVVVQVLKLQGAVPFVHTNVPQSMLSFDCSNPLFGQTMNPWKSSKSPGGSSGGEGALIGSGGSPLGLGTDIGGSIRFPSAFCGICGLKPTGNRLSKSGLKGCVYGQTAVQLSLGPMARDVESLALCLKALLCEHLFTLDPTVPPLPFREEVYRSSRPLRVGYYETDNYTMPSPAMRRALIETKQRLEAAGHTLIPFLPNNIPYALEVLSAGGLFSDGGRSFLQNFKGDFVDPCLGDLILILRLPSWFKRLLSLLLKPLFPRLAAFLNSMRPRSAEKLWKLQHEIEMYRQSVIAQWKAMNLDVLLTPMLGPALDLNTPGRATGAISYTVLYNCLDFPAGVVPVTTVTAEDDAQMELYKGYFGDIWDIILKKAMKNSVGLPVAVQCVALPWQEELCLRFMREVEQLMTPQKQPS
In short: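 Wistar rat brain membranes (5 μg protein) preincubated 15 min at 37 °C with compound at 10 μM or 0.1 μM (0.1% DMSO), then 2 μM AEA including 3H-AEA with 0.1% BSA, Tris pH 7.6, 10 min. 3H-ethanolamine counted after charcoal stop; % of no-compound control after blank subtraction.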

Row | Structure (SMILES) | In Vivo BRh 3 mg/kg 8 h, remaining FAAH activity (FAAH [1]) | In Vivo LVh 3 mg/kg 8 h, remaining FAAH activity (FAAH [2]) | In Vitro FAAH activity, 100 nM (FAAH [3])
1 | Cc1ccc(OC2CCN(C(=O)n3nnc4ccccc43)CC2)cc1 [Compound 99, (1H-benzo[d][1,2,3]triazol-1-yl)(4-(p-tolyloxy)piperidin-1-yl)methanone] | 99.1 % of control | 71.4 % of control | 0.2 % of control
2 | O=C(N1CCC(CCc2ccccc2)CC1)n1nnc2ccccc21 [Compound 100, (1H-benzo[d][1,2,3]triazol-1-yl)(4-phenethylpiperidin-1-yl)methanone] | 68.1 % of control | 40.5 % of control | 0.2 % of control
3 | O=C(N1CCC(CCCc2ccccc2)CC1)n1nnc2ccccc21 [Compound 110, (1H-benzo[d][1,2,3]triazol-1-yl)(4-(3-phenylpropyl)piperidin-1-yl)methanone] | 51.7 % of control | 10.2 % of control | 0.1 % of control
4 | CN(C(=O)n1cnc(-c2ccc(C(N)=O)cc2)c1)c1ccccc1 [Compound 113, 4-(4-carbamoylphenyl)-N-methyl-N-phenyl-1H-imidazole-1-carboxamide] | 84.1 % of control | 32.3 % of control | 90.3 % of control
5 | O=C(N1CCC(c2ccncc2)CC1)n1nnc2ccccc21 [Compound 114, (1H-benzo[d][1,2,3]triazol-1-yl)(4-(pyridin-4-yl)piperidin-1-yl)methanone] | 102.9 % of control | 109.9 % of control | 0.1 % of control
6 | O=C(N1CCC(c2nc(-c3cccnc3)no2)CC1)n1nnc2ccccc21 [Compound 116, (1H-benzo[d][1,2,3]triazol-1-yl)(4-(3-(pyridin-3-yl)-1,2,4-oxadiazol-5-yl)piperidin-1-yl)methanone] | 126.2 % of control | 113.2 % of control | 0.5 % of control
7 | O=C(N1CCN(Cc2ccc(F)cc2)CC1)n1nnc2ccccc21 [Compound 121, (1H-benzo[d][1,2,3]triazol-1-yl)(4-(4-fluorobenzyl)piperazin-1-yl)methanone] | 118.6 % of control | 116.1 % of control | 0 % of control
8 | O=C(NC12CC3CC(CC(C3)C1)C2)n1nnc2ccccc21 [Compound 126, N-adamantyl-1H-benzo[d][1,2,3]triazole-1-carboxamide] | 0.2 % of control | 2.2 % of control | 0 % of control
9 | O=C(N1CCN(C2CCCCC2)CC1)n1nnc2ccccc21 [Compound 127, (1H-benzo[d][1,2,3]triazol-1-yl)(4-cyclohexylpiperazin-1-yl)methanone] | 111.5 % of control | 107.3 % of control | 0.1 % of control
10 | CN(CCCCCc1ccccc1)C(=O)n1nnc2ccccc21 [Compound 129, N-methyl-N-(5-phenylpentyl)-1H-benzo[d][1,2,3]triazole-1-carboxamide] | 2.5 % of control | 2 % of control | 0 % of control
11 | O=C(N1CCC(OCCCc2ccccc2)CC1)n1nnc2ccccc21 [Compound 135, (1H-benzo[d][1,2,3]triazol-1-yl)(4-(3-phenylpropoxy)piperidin-1-yl)methanone] | 26.5 % of control | 30.1 % of control | 0.1 % of control
12 | CN1CCN(c2ccc(-c3ncn(C(=O)N4CCOCC4)n3)cc2)CC1 [Compound 139, (3-(4-(4-methylpiperazin-1-yl)phenyl)-1H-1,2,4-triazol-1-yl)(morpholino)methanone] | 97.1 % of control | 105.7 % of control | 80.2 % of control
13 | CN(C(=O)n1nnc2ccccc21)C1CCC2(CC1)OCC(C)(C)CO2 [Compound 143, N-(3,3-dimethyl-1,5-dioxaspiro[5.5]undec-9-yl)-N-methyl-1H-benzotriazole-1-carboxamide] | 0.4 % of control | 0.7 % of control | 2.5 % of control
14 | COc1ccc(OCCC2CCN(C(=O)n3nnc4ccccc43)CC2)cc1 [Compound 144, (1H-benzo[d][1,2,3]triazol-1-yl)(4-(2-(4-methoxyphenoxy)ethyl)piperidin-1-yl)methanone] | 68.2 % of control | 17.6 % of control | 0.1 % of control
15 | Cl.N#Cc1ccc(Oc2ccc(-c3ncn(C(=O)N4CCN(c5ccccc5)CC4)n3)cc2)cc1 [Compound 145, 4-(4-(1-(4-phenylpiperazine-1-carbonyl)-1H-1,2,4-triazol-3-yl)phenoxy)benzonitrile hydrochloride] | 89.9 % of control | 116.5 % of control | 0.3 % of control
16 | NC(=O)c1ccc(Oc2ccc(-c3ncn(C(=O)N4CCOCC4)n3)cc2)cc1 [Compound 147, 4-(4-(1-(morpholine-4-carbonyl)-1H-1,2,4-triazol-3-yl)phenoxy)benzamide] | 124.4 % of control | 103 % of control | 55.1 % of control
17 | NC(=O)c1ccc(Oc2ccc(-c3ncn(C(=O)N4CCN(c5ccccc5)CC4)n3)cc2)cc1 [Compound 148, 4-(4-(1-(4-phenylpiperazine-1-carbonyl)-1H-1,2,4-triazol-3-yl)phenoxy)benzamide] | 113.7 % of control | 87.6 % of control | 0.3 % of control
18 | CN(Cc1ccccc1)C(=O)n1cnc(-c2ccc(F)cc2)c1 [Compound 150, N-benzyl-4-(4-fluorophenyl)-N-methyl-1H-imidazole-1-carboxamide] | 5.6 % of control | 3.8 % of control | 1.2 % of control
19 | CN(Cc1ccccc1)C(=O)n1cnc(-c2ccc(Oc3ccc(C(N)=O)cc3)cc2)n1 [Compound 151, N-benzyl-3-(4-(4-carbamoylphenoxy)phenyl)-N-methyl-1H-1,2,4-triazole-1-carboxamide] | 116.7 % of control | 65.8 % of control | 0.4 % of control
20 | O=C(N1CCN(c2ccccc2)CC1)n1cnc(-c2cccs2)n1 [Compound 155, (4-phenylpiperazin-1-yl)(3-(thiophen-2-yl)-1H-1,2,4-triazol-1-yl)methanone] | 144.1 % of control | 108.2 % of control | 0.4 % of control
